In patent US20160303205A1, “Combination Therapies for Lysosomal Storage Diseases” (Washington University, priority 2015, published 2016) one finds lifespan and median lifespan data, which are given here for one compound.

The subject of test [1] is Twitcher mice. To be noted: Twitcher mouse; literature (LeVine 2000; Biswas and LeVine 2002); cited from earlier work.
In test [2] the test system is Twitcher mice. In words: Lifespan of Twitcher mice (Kaplan-Meier survival). It counts as in vivo, mouse. An excerpt:
Treated and untreated Twitcher mice as well as untreated controls were used in all experiments. […] The experimental and control animals were randomly assigned to groups for analysis at pre-determined time points (n=3-6 animals per time point) or for life span and behavioral analyses (n=10-14 animals per group). The number of animals per group was based on previous experience with this model and the specific assays as well as power calculations. Quantitative biochemical analyses (GALC activity, psychosine measurements, cytokine/chemokine levels) were performed in duplicate on tissues from 3-6 animals, depending on the assay. Semi-quantitative histomorphometry was performed on at least 3 representative sections per animal from at least 3 animals per group. The photography settings were kept constant for all images. Analysis of variance (ANOVA) was used for group comparisons with Bonferroni correction for pair-wise comparisons. Student's t-test was used to compare the means of two groups. Significant differences in life span were determined by log-rank test. […]
Animals were housed at Washington University School of Medicine. […] Genotypes were determined on postnatal day 1 by PCR as previously described (Sakai et al. 1996 J Neurochem 66:1118-1124; Lin et al., 2005 Molecular Therapy 12:422-430.). […]
Lifespan was recorded as the age of the animal on the date of death or sacrifice. […]

Each structure is given as a SMILES string. Read-outs that look alike come from different tables or passages of the source.

Regarding `N[C@H]1CONC1=O` [L-cycloserine], in the test with Twitcher mice [1], the lifespan is listed as approximately 57 days. In addition, the median lifespan is approximately 57 days in the test on Twitcher mice [2] and 57 days in the test with Twitcher mice [2] (untreated Twitcher 39.5 d).
